“Also recorded” adds a separate entry of the source.
Tests used:
[1] = system: TRPM8; set-up: method as in PMID 25893043, PMID 30148953; settings: healthy volunteers and migraneous patients, respectively; ref [35],[36]; cited from earlier work
[2] = biological target: T1, rat TRPM8 (Rattus norvegicus, UniProt Q8R455); assay: Whole-cell patch-clamp in HEK293 cells expressing rat TRPM8; format: cell-based; settings: 100 μM menthol; for % Blockade at 10 μM: compound 10 μM, whole cell; for IC50: holding potential −60 mV
T1 construct: expressed in transfected cells; host or cells: HEK293 (human embryonic kidney), stably transfected
Description: In the electrophysiology assay, both compounds at 10 μM concentration were able to block TRPM8-mediated responses induced by menthol (Figure 2 and Figure A2, Table 3). […] After 10 μM of 14 was applied (Figure 2A, red), an important decrease on the menthol-induced TRPM8 activity at depolarizing voltages was observed. A similar behavior was detected after application of diastereomeric β–lactam 16 (Figure 2B). The dose–response curves for both compounds were obtained at a holding potential of −60 mV (Figure 2). The measured IC50 values were 0.9 ± 1.0 μM for 14 (Figure 2C) and 0.05 ± 1.3 μM for 16 (Figure 2D).
Whole-cell patch-clamp recordings from HEK-rTRPM8 cells were carried out 2 days after seeding on 12-mm Ø glass coverslips treated with poly-L-lysine solution (Sigma Aldrich, Spain); the intracellular pipette solution contained (in mM) 150 NaCl, 5 EGTA, 3 MgCl2 and 10 HEPES, adjusted to pH 7.2 with NaOH, and the extracellular solution contained (in mM) 150 NaCl, 6 CsCl, 1.5 CaCl2, 1 MgCl2, 10 D-glucose and 10 HEPES, adjusted to pH 7.4 with NaOH. The TRPM8 activity was measured by the application of two pulses of 100 μM menthol in a time interval of 2 min and a 30-s perfusion of the different compound concentrations before the second menthol pulse.
(§1) Data were sampled at 10 kHz (EPC10 amplifier with PatchMaster 2.53 software, HEKA Electronics, Lambrecht, Germany) and low-pass filtered at 3 kHz for analysis (PatchMaster 2.53 and GraphPad Prism 5, Graphpad Software, USA). The series resistance was <10 MΩ and to minimize voltage errors was compensated to 60–80%. All measurements were performed at 24–25 °C. Cell capacitance was measured and used to estimate the current density (J, pA/pF).
Data analysis: Results are expressed as the percentage of remaining activation of the TRPM8 channel. This is calculated by normalizing the ratio (p2/p1) of testing conditions to the ratio (p2/p1) of the control condition. Analysis of the data was performed by GraphPad 6.0, the Ordinary One-Way ANOVA analysis followed by the post hoc Bonferroni test stablished multiple comparisons and the ROUT method (Q = 10%) identified data outliers. A non-linear regression curve and IC50 were obtained by the representation of log (inhibitor) vs. response. All data are expressed as the mean ± standard error of the mean (SEM) (n = 5–8).

[3] = system: rat DRG neurons; assay: Microelectrode array, KCl-evoked action potentials in DRG neurons; format: cell-based; settings: compound 10 μM; 40 mM KCl
Text: To further interrogate β–lactam derivatives’ action on the excitability of DRG neurons we next used microelectrode arrays (MEA). This technology records the electrogenic activity of neural populations that are located near to an electrode, but it cannot differentiate the number of neurons or other cells contributing to it. We used MEA chips with 60 electrodes and monitored the electrical activity at each electrode to measure if the potent inhibitory effect of β–lactam derivatives act on voltage-gated Na^+ and K^+ channels present in neurons and responsible for action potential propagation. Neurons isolated from neonatal rat dorsal root ganglions (DRG) were cultured on MEA chambers. The experimental paradigm consisted in applying a first 15-s pulse (P1) of 40 mM KCl, to evoke action potentials. […]
Data analysis: Data were analyzed using an MC_RACK spike sorter with a sample rate of 25 kHz and a Butterworth high-pass 2nd order filter applied with 200 Hz cutoff. […] Spiking activity was measured in a temporal interval of 30 s, starting right after instillation of the activating stimuli. […] The recorded signals were then processed to extract mean spike frequency for each pulse (P1–P2). Then, the ratio P2/P1 of mean spike frequency was calculated and normalized to vehicle for comparing the different conditions used.

[4] = system: rat DRG sensory neurons; assay: Current-clamp resting membrane potential of DRG sensory neurons; format: cell-based; settings: compound 10 μM, t-test ns
Description: Next, we investigated the effect of the membrane of rat DRG sensory neurons. […] Sensory neurons were functional as evidenced by action potentials fired exposed to 100 μM menthol (Figure 3A, top trace).
Current-Clamp recordings from rat DRGs were carried out 24–48 h after seeding on 12-mm Ø glass coverslips treated with poly-L-lysine solution and Laminin (Sigma Aldrich). The intracellular pipette solution contained (in mM): 4 NaCl, 126 K gluconate, 0.02 CaCl2, 1 MgSO4, 5 HEPES, 15 glucose, 3 ATP, 0.1 GTP and 5 EGTA, pH 7.2 with KOH. The extracellular solution contained (in mM): 140 NaCl, 4 KCl, 2 CaCl2, 2 MgCl2, 10 HEPES, 5 glucose and 20 mannitol, pH 7.4 with NaOH. The membrane potential was measured in the absence and the presence of compounds 14 and 16 at 10 μM in a time interval of 1 min.
as §1

[5] = biological target: T1, rat TRPM8; assay: Ca2+ intracellular influx assay (calcium microfluorimetry), menthol-induced; format: cell-based; settings: 100 μM menthol; for % Blockade 5 μM: compound 5 μM; for % Blockade 5 μM / % Blockade 50 μM / IC50: HEK-rTRPM8; for Menthol-induced fluorescent signal: compound 10 μM, representative graph Figure A1; for % Blockade 50 μM: compound 50 μM
Description: The four obtained diastereomeric compounds were evaluated for their ability to inhibit menthol-induced Ca^2+ intracellular influx into the cytosol on HEK293 cells heterologously expressing rat TRPM8. The well-known TRPM8 antagonist N-(3-aminopropyl)-2-[(3-methylphenyl)methoxy]-N-(2-thienylmethyl)-benzamide (AMTB) was used as control. Some representative graphs for compound 14 and 16 at 10 μM on HEK-rTRPM8 cells are included in Figure A1.
Compounds were evaluated for their activity against rTRPM8 using microfluorometry based calcium flux assays with Fluo-4 NW Ca^2+ dye and fluorescence were measured at excitation wavelength of 485 nm and emission wavelength of 520 nm using POLASTAR plate reader (BMG Labtech). Briefly human embryonic kidney cell line (HEK) stably transfected with rTRPM8 were seeded in 96-well plates at a cell density of 30,000 cells and 2 days before the medium was replaced with 100 μL of the dye loading solution Fluo-4 NW supplemented with probenecid 2.5 mM. After 1 h incubation at 37 °C, plates were transferred to the plate reader and the baseline fluorescence was recorded for 3 cycles before the addition of vehicle, compound at different concentrations and the antagonist, 10 μM AMTB for TRPM8. Fluorescence intensity was recorded during 7 more cycles and the agonist was added, 100 μM menthol. Fluorescence intensity was recorded during 10 more cycles.
Data analysis: the fluorescence values obtained for each compound concentration were normalized to that prompted by the control agonist (100 μM menthol). Decrease in menthol signal was expressed as percentage of inhibition (%). All data are expressed as the mean ± standard deviation (SD). Each condition was assessed in triplicate (n = 3) in 3 independent experiments (N = 3). The Z-factor was calculated in each assay using the following equation: […]. In all the experiments, the Z-factor was ≥ 0.5. To calculate IC50, normalized responses (%) versus log (μM) were adjusted to a non-linear fit with variable slope, a four-parameter dose–response curve following curve Y = 100/(1 + 10^((Log IC50-X) × HillSlope)) where […].

[6] = biological target: T2, hTRPV1 (Homo sapiens, UniProt Q8NER1); assay: Ca2+ influx assay, TRPV1 selectivity; format: cell-based; settings: compound 50 μM; read-out: % TRPV1 Blockade at 50 μM
T2 construct: expressed in transfected cells
Text: (§2) Because some molecular cross-recognition may occur within thermoTRP members, we evaluated the effect of compounds 14 and 16 on recombinantly expressed hTRPV1 and hTRPA1 channels. Data shown in Table 2 indicate that these β–lactam derivatives marginally cross-reacted with these channels, thus substantiating that they are potent and selective inhibitors of TRPM8.

[7] = biological target: T3, hTRPA1 (Homo sapiens, UniProt O75762); assay: Ca2+ influx assay, TRPA1 selectivity; format: cell-based; settings: compound 50 μM; read-out: % TRPA1 Blockade at 50 μM
T3 construct: expressed in transfected cells
Text: as §2

[8] = biological target: T1, rat TRPM8; set-up: method as in PMID 32843690; settings: ref [41]; cited from earlier work
[9] = system: oxaliplatin-induced allodynia; set-up: method as in PMID 32843690; settings: mice; from 15 to up to 60 min; ref [41]; cited from earlier work
[10] = system: four tumor cell lines; set-up: method as in PMID 32843690; settings: non-selective, ref [41]; cited from earlier work

T1 sequence (Q8R455 whole entry): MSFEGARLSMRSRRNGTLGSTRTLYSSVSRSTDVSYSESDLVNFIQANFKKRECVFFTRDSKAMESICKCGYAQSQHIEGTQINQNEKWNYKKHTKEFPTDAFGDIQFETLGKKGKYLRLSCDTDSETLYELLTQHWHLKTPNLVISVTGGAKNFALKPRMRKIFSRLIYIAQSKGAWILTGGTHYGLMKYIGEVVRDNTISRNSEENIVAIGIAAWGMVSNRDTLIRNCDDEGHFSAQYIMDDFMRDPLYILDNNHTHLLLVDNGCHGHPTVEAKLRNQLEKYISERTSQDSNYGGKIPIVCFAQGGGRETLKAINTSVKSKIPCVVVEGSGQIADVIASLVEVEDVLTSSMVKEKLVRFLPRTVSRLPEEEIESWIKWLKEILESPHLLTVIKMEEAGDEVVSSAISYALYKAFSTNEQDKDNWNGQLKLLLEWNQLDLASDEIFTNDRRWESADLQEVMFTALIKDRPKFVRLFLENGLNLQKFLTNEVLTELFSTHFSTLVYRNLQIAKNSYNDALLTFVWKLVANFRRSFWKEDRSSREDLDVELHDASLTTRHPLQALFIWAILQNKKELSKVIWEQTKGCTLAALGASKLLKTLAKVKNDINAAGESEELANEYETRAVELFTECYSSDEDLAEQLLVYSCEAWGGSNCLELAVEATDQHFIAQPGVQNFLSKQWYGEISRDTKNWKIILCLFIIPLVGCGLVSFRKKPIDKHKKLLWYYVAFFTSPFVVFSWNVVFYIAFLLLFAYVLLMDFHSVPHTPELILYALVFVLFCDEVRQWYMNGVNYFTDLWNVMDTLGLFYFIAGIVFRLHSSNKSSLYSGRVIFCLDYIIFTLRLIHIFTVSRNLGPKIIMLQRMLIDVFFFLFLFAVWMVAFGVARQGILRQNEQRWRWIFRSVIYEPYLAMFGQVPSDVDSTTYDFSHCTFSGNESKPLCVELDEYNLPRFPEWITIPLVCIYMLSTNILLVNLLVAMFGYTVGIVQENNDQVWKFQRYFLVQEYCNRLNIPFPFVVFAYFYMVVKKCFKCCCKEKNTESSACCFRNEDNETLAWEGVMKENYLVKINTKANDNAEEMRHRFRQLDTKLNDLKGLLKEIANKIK
T3 sequence (O75762 whole entry): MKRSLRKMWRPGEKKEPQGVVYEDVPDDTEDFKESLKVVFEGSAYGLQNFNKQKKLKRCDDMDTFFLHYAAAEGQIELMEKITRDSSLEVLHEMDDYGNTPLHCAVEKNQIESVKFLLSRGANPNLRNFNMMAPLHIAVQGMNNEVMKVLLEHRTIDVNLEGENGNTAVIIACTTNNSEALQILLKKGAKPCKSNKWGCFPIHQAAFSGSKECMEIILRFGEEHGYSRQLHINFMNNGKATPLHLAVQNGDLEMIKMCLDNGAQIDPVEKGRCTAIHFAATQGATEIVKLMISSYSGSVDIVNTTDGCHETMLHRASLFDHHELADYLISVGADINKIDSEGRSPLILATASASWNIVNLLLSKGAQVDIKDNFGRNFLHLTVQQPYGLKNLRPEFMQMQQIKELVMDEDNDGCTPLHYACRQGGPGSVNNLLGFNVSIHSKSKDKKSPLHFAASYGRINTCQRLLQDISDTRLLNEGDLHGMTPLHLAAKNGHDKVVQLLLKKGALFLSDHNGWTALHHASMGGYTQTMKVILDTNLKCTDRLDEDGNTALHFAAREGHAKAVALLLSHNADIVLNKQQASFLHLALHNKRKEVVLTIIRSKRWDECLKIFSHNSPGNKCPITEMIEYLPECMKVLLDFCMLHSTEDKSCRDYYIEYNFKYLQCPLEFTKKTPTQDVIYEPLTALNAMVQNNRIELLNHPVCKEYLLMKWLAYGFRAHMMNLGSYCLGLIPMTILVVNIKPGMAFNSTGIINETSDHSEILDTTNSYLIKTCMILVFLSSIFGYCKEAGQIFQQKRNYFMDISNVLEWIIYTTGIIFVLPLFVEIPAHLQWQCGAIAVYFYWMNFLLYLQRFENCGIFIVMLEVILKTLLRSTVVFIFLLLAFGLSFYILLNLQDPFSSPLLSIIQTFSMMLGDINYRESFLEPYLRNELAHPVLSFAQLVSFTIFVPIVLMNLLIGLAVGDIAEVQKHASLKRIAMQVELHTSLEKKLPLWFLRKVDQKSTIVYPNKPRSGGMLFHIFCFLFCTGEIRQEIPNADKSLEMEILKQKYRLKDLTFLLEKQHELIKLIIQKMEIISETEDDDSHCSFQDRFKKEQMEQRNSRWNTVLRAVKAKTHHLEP
T2 sequence (Q8NER1 whole entry): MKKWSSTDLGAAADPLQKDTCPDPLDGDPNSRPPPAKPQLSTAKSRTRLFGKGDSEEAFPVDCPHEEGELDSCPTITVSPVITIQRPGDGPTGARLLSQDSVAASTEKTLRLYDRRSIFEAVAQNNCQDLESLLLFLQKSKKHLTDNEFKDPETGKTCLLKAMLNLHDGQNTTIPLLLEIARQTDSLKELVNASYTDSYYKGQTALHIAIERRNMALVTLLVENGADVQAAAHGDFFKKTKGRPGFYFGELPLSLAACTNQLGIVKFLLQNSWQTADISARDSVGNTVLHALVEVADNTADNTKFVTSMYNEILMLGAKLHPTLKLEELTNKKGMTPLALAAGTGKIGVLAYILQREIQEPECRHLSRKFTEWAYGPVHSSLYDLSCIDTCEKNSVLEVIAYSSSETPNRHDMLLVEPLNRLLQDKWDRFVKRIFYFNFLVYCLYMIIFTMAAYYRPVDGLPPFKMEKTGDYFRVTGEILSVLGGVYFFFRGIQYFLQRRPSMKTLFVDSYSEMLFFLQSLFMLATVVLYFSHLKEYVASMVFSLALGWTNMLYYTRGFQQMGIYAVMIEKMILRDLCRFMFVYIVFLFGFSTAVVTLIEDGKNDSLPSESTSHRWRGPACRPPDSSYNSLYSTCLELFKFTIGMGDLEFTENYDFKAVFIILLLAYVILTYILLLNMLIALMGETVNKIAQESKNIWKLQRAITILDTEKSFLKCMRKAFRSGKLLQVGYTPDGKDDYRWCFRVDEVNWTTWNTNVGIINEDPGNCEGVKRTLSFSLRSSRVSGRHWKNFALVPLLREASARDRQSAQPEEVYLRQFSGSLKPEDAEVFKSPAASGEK

% Blockade at 10 μM [2]	IC50 [2]	% Blockade 5 μM [5]	Menthol-induced fluorescent signal [5]	% Blockade 50 μM [5]	inhibition at 50 µM [6]	inhibition at 50 µM [7]	IC50 [5]	SMILES	Adverse effects in phase I clinical trials [1]	Effect on potassium-evoked action potentials (electrogenicity) [3]	Effect on resting membrane potential [4]	Block of channel activation by menthol (Ca2+ entry assay) [8]	Oxaliplatin-induced allodynia [9]	Antitumor activity [10]
								C[C@H](c1ccc(F)cc1)N(Cc1cccc(C(=O)O)c1)C(=O)c1cnc2ccccc2c1 [PF-05105679]	several adverse effects, including feeling hot					
77.2 ± 2.7%	900 ± 1000 nM	78.9 ± 1.7%	completely blocked	87.7 ± 3.1%	2.8 ± 4.1%	2.4 ± 1.4%		C[C@@H]1C(=O)N(C[C@@H](Cc2ccccc2)N(Cc2ccccc2)Cc2ccccc2)[C@]1(Cc1ccccc1)C(=O)OCc1ccccc1 [Compound 14, 4S-Benzyl-1-[(2′R-dibenzylamino-3′-phenyl)prop-1′-yl]-4-benzyloxicarbonyl-3S-methyl-2-oxoazetidine]		do not alter potassium-evoked action potentials; also recorded: did not affected the electrogenicity	do not affect the membrane resting potential			
79.3 ± 2.7%	50 nM	87.3 ± 8.1%	completely blocked	98.5 ± 3.2%	4.2 ± 3.2%	0.5 ± 4.1%		C[C@H]1C(=O)N(C[C@@H](Cc2ccccc2)N(Cc2ccccc2)Cc2ccccc2)[C@@]1(Cc1ccccc1)C(=O)OCc1ccccc1 [Compound 16, 4R-Benzyl-1-[(2′R-dibenzylamino-3′-phenyl-)prop-1′-yl]-4-benzyloxicarbonyl-3R-methyl-2-oxoazetidine]		do not alter potassium-evoked action potentials; also recorded: did not affected the electrogenicity	do not affect the membrane resting potential			
		57.7 ± 7.2%		86.1 ± 5.0%	7.9 ± 3.2%	3.7 ± 4.1%	3100 ± 1100 nM	C[C@@H]1C(=O)N(C[C@H](Cc2ccccc2)N(Cc2ccccc2)Cc2ccccc2)[C@]1(Cc1ccccc1)C(=O)OCc1ccccc1 [Compound 13, 4S-Benzyl-1-[(2′S-dibenzylamino-3′-phenyl-)prop-1′-yl]-4-benzyloxicarbonyl-3S-methyl-2-oxoazetidine]						
		71.1 ± 4.3%		90.3 ± 2.8%	5.3 ± 3.4%	2.6 ± 1.9%	700 ± 1100 nM	C[C@H]1C(=O)N(C[C@H](Cc2ccccc2)N(Cc2ccccc2)Cc2ccccc2)[C@@]1(Cc1ccccc1)C(=O)OCc1ccccc1 [Compound 15, 4R-Benzyl-1-[(2′S-dibenzylamino-3′-phenyl)prop-1′-yl]-4-benzyloxicarbonyl-3R-methyl-2-oxoazetidine]						
								C[C@@H]1C(=O)N(C[C@H](Cc2ccccc2)NC(=O)OCc2ccccc2)[C@]1(Cc1ccccc1)C(=O)OCc1ccccc1 [Compound 1]				micromolar values	significantly reduces the oxaliplatin-induced allodynia	micromolar potency in four tumor cell lines

Reference: publication PMC7956626, “Phenylalanine-Derived β-Lactam TRPM8 Modulators. Configuration Effect on the Antagonist Activity” (International Journal of Molecular Sciences, 2021)
